Test results published in US20020028938A1, “Prostaglandin endoperoxide H synthase biosynthesis inhibitors” (priority 1997, published 2002).

Legend:
[1] = target: T1, recombinant human Cox-1 (r-hu Cox1) (Homo sapiens, UniProt P23219); experiment: Recombinant human PGHS-1 enzyme assay (RHUCX1); assay type: biochemical; settings: for inhibition at 100 µM / inhibition at 10 µM / inhibition at 1 µM: read-out: RHUCX1 % Inh. at Dose
T1 construct: made in house; host or cells: baculovirus/Sf9 insect cells (microsomes)
T1 sequence (P23219 24-599): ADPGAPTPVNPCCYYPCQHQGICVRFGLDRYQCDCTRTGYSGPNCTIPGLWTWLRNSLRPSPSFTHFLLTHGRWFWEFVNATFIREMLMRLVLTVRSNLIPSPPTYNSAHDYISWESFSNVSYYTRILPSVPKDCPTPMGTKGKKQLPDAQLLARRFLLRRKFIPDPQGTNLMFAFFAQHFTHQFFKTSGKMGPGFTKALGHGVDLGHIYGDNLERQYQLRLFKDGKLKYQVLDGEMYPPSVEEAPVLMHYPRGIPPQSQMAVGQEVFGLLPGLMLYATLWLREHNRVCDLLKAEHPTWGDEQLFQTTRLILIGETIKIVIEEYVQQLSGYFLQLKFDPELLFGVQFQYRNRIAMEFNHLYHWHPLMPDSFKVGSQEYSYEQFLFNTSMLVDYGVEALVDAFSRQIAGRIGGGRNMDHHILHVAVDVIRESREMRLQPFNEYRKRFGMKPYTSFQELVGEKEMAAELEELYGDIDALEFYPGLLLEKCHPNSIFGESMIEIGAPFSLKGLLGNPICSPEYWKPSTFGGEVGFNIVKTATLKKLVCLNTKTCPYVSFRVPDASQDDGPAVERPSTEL
Description: (§1) To compare the mean responses of the treatment groups, analysis of variance was applied. Percent inhibition values were determined by comparing the individual treatment mean values to the mean of the control group. Linear regression was used to estimate IC50's/ED50's in appropriate assays.
(§2) EIA reagents for prostaglandin determination were purchased from Perseptive Diagnostics, (Cambridge, Mass.). Prostaglandin E2 (PGE2) levels in lavage fluids were determined after the samples were dried under nitrogen and reconstituted with assay buffer. PGE2 levels in enzyme assays or cell culture media were measured against standards prepared in the same milieu. The immunoassays were conducted as recommended by the manufacturer. The EIA was conducted in 96 well microtiter plates (Nunc Roskilde, Denmark) and optical density was measured using a microplate reader (Vmax, Molecular Devices Corp., Menlo Park, Calif.).
(§3) Inhibition of prostaglandin biosynthesis in vitro was evaluated using recombinant human Cox-1 (r-hu Cox1) and Cox-2 (r-hu Cox-2) enzyme assays. […] The reaction was allowed to run for 2.5 minutes at room temperature prior to quenching with HCl and neutralization with NaOH. PGE2 production in the presence and absence of the drug was determined by EIA analysis. The EIA was conducted in 96 well microtiter plates (Nunc Roskilde, Denmark) and optical density was measured using a microplate reader (Vmax, Molecular Devices Corp., Menlo Park, Calif.). EIA reagents for prostaglandin determination were purchased from Perseptive Diagnostics (Cambridge, Mass.). PGE2 levels were measured against standards prepared in the same milieu. The immunoassays were conducted as recommended by the manufacturer.

[2] = target: T2, recombinant human Cox-2 (r-hu Cox-2) (Homo sapiens, UniProt P35354); experiment: Recombinant human PGHS-2 enzyme assay (RHUCX2); assay type: biochemical; settings: for IC50: read-out: RHUCX2 IC50 (parenthetical value)
T2 construct: made in house; host or cells: baculovirus/Sf9 insect cells (microsomes)
T2 sequence (P35354 18-604): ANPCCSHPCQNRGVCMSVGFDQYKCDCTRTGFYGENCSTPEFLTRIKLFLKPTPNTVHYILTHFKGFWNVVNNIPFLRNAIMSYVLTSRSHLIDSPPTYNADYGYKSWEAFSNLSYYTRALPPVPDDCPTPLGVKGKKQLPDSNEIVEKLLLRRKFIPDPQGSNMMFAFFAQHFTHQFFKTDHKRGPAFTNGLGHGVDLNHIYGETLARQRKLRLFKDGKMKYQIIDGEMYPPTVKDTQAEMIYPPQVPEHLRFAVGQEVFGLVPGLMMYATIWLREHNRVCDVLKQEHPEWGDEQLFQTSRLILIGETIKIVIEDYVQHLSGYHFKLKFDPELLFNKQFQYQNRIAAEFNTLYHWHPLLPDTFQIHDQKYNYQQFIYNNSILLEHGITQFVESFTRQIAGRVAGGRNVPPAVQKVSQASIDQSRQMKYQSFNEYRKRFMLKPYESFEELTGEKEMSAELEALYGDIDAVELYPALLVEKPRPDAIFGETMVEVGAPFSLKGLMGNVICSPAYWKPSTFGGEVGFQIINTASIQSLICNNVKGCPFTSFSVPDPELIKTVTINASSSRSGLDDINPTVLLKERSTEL
Description: as §1, §2, §3

[3] = 0.01 μM, read-out: RHUCX2 % Inh. at Dose
[4] = 0.1 μM, read-out: RHUCX2 % Inh. at Dose
[5] = 1 μM, read-out: RHUCX2 % Inh. at Dose

Row | melting point [°C] | inhibition at 100 µM ([1]; 100 μM) [%] | inhibition at 0.1 µM [2, 4] [%] | inhibition at 1 µM [2, 5] [%] | inhibition at 10 µM [1] [%] | IC50 [2] [nM] | SMILES | also measured
1 | 179 to 182 | 25 |  |  |  |  | CS(=O)(=O)c1ccc(-c2cnn(Cc3ccc(F)cc3F)c(=O)c2-c2ccc(F)cc2)cc1 [Example 22, 2-(2,4-Difluorobenzyl)-4-(4-fluorophenyl)-5-[4-(methylsulfonyl)phenyl]-3(2H)-pyridazinone] | inhibition at 0.01 µM [2, 3]: 35%; inhibition at 0.03 µM ([2]; 0.03 μM, read-out: RHUCX2 % Inh. at Dose): 91%
2 | 87 to 90 | 1 | 66 | 93 |  |  | CS(=O)(=O)c1ccc(-c2cnn(Cc3ccccc3C(F)(F)F)c(=O)c2-c2ccc(F)cc2)cc1 [Example 25, 2-(2-Trifluoromethylbenzyl)-4-(4-fluorophenyl)-5-[4-(methylsulfonyl)phenyl]-3(2H)-pyridazinone] | 
3 | 118 to 121 | 10 | 44 | 91 |  |  | CS(=O)(=O)c1ccc(-c2cnn(CC3CC3)c(=O)c2-c2ccc(F)cc2)cc1 [Example 26, 2-(Cyclopropylmethyl)-4-(4-fluorophenyl)-5-[4-(methylsulfonyl)phenyl]-3(2H)-pyridazinone] | inhibition at 0.01 µM [2, 3]: 44%
4 | 150 to 152 |  |  |  | 34 | 17 | CS(=O)(=O)c1ccc(-c2cnn(CC=C(Cl)Cl)c(=O)c2-c2ccc(F)cc2)cc1 [Example 35] | 
5 | 165 to 167 |  |  |  | 21 | 570 | CS(=O)(=O)c1ccc(-c2cnn(CC=Cc3ccccc3)c(=O)c2-c2ccc(F)cc2)cc1 [Example 36, 2-(3-Phenyl-2-propenyl)-4-(4-fluorophenyl)-5-[4-(methylsulfonyl)phenyl]-3(2H)-pyridazinone] | 
6 | 185 to 186 | 0 |  |  |  | 440 | CS(=O)(=O)c1ccc(-c2cnn(Cc3ncc(Cl)s3)c(=O)c2-c2ccc(F)cc2)cc1 [Example 39, 2-(5-Chlorothiazol-2-ylmethyl)-4-(4-fluorophenyl)-5-[4-(methylsulfonyl)phenyl]-3(2H)-pyridazinone] | 
7 | 167 to 169 |  | 89 | 97 | 76 |  | CS(=O)(=O)c1ccc(-c2cnn(C=C(F)C(F)(F)C(F)(F)F)c(=O)c2-c2ccc(F)cc2)cc1 [Example 40, 2-(2,3,3,4,4,4-Hexafluorobuten-1-yl)-4-(4-fluorophenyl)-5-[4-(methylsulfonyl)phenyl]-3(2H)-pyridazinone] | inhibition at 1 µM [1]: 69%
8 | 115 to 116 | 5 | 63 | 85 |  |  | CS(=O)(=O)c1ccc(-c2cnn(Cc3c(F)c(F)c(F)c(F)c3F)c(=O)c2-c2ccc(F)cc2)cc1 [Example 45, 2-(2,3,4,5,6-Pentafluorobenzyl)-4-(4-fluorophenyl)-5-[4-(methylsulfonyl)phenyl]-3(2H)-pyridazinone] | 
9 | 162 to 164 | 23 | 59 | 99 |  |  | CC(c1ccc(F)cc1)n1ncc(-c2ccc(S(C)(=O)=O)cc2)c(-c2ccc(F)cc2)c1=O (stereo not drawn) [Example 50, 2-(α-Methyl-4-fluorobenzyl)-4-(4-fluorophenyl)-5-[4-(methylsulfonyl)phenyl]-3(2H)-pyridazinone] | 
10 | 134 to 136 |  | 83 | 99 | 32 |  | CS(=O)(=O)c1ccc(-c2cnn(Cc3ccccc3)c(=O)c2-c2ccc(F)c(Cl)c2)cc1 [Example 52, 2-Benzyl-4-(3-chloro-4-fluorophenyl)-5-[4-(methylsulfonyl)phenyl]-3(2H)-pyridazinone] | 
11 | 197 to 198 | 6 | 44 | 97 |  |  | CS(=O)(=O)c1ccc(-c2cnn(CC(F)(F)F)c(=O)c2-c2ccc(Cl)c(Cl)c2)cc1 [Example 81, 2-(2,2,2-Trifluoroethyl)-4-(3,4-dichlorophenyl)-5-[4-(methylsulfonyl)phenyl]-3(2H)-pyridazinone] | 
12 | 196 | 35 |  |  |  | 332 | CSc1cccc(-n2ncc(-c3ccc(S(C)(=O)=O)cc3)c(-c3ccc(F)cc3)c2=O)c1 [Example 97, 2-[3-(Methylthio)phenyl]-4-(4-fluorophenyl)-5-[4-(methylsulfonyl)phenyl]-3(2H)-pyridazinone] | 
13 | 209 to 211 | 13 |  |  |  | 52 | CS(=O)(=O)c1ccc(-c2cnn(-c3cc(F)cc(F)c3)c(=O)c2Oc2ccc(F)cc2)cc1 [Example 111, 2-(3,5-Difluorophenyl)-4-(4-fluorophenoxy)-5-[4-(methylsulfonyl)phenyl]-3(2H)-pyridazinone] | 
14 | 202 to 203 | 1 |  |  |  | 285 | CS(=O)(=O)c1ccc(-c2cnn(C3CCC3)c(=O)c2-c2ccc(F)cc2)cc1 [Example 122, 2-Cyclobutyl-4-(4-fluorophenyl)-5-[4-(methylsulfonyl)phenyl]-3(2H)-pyridazinone] | 
15 | 236 to 238 | 26 |  |  |  | 44 | NS(=O)(=O)c1ccc(-c2cnn(Cc3ccc(F)cc3F)c(=O)c2-c2ccc(F)cc2)cc1 [Example 124, 2-(2,4-Difluorobenzl)-4-(4-fluorolphenyl)-5-[4-(aminosulfonyl)phenyl]-3(2H)-pyridazinone] | 
16 | 253 to 255 |  | 51 | 74 | 50 |  | NS(=O)(=O)c1ccc(-c2cnn(Cc3ccc(F)c(F)c3)c(=O)c2-c2ccc(F)cc2)cc1 [Example 127, 2-(3,4-Difluorobenzyl)-4-(4-fluorophenyl)-5-[4-(aminosulfonyl)phenyl]-3(2H)-pyridazinone] | inhibition at 1 µM [1]: 30%
17 | 97 to 100 | 14 |  |  |  | 477 | CS(=O)(=O)c1ccc(-c2cnn(C3Cc4ccccc4C3)c(=O)c2-c2ccc(F)cc2)cc1 [Example 128, 2-(2,3-Dihydro-1H-inden-2-yl)-4-(4-fluorophenl)-5-[4-(methylsulfonyl)phenyl]-3(2H)-pyridazinone] | 
18 | 107 to 110 | 54 |  |  | 35 | 53 | CC1(n2ncc(-c3ccc(S(C)(=O)=O)cc3)c(-c3ccc(F)cc3)c2=O)CCCC1 [Example 134] | 
19 | 192 to 194 |  | 78 | 88 |  |  | CC(c1cccc(F)c1)n1ncc(-c2ccc(S(N)(=O)=O)cc2)c(-c2ccc(F)cc2)c1=O (stereo not drawn) [Example 144, 2-(α-Methyl-3-fluorobenzyl)-4-(4-fluorophenyl)-5-[4-(aminosulfonyl)phenyl]-3(2H)-pyridazinone] | IC50 ([1]; read-out: RHUCX1 IC50 (parenthetical value)): 58 nM; inhibition at 0.01 µM [2, 3]: 65%
20 |  |  |  |  |  |  | CC(C)=CCCOc1c(-c2ccc(S(C)(=O)=O)cc2)cnn(-c2ccc(F)cc2)c1=O [Example 424] | RHUCX1 % Inh. at Dose (μM) ([1]; 100 μM): 7 @ 100%; RHUCX2 % Inh. at Dose (μM) ([2]; 0.01 μM): 33 @ 0.01%; RHUCX2 % Inh. at Dose (μM) ([2]; 0.1 μM): 58 @ 0.1%; RHUCX2 % Inh. at Dose (μM) ([2]; 1 μM): 75 @ 1%
